Measured values: article PMC11868366 (Communications Biology, 2025)

Molecular target: S6MTHFR (Sphingobium sp. SYK-6, UniProt G2IQS8)
Assay: X-ray crystal structure of CH3-THF complex, […] Å
Type: binding
Settings: FAD bound as purified; pH 4.5

Chain of S6MTHFR (G2IQS8 2-288): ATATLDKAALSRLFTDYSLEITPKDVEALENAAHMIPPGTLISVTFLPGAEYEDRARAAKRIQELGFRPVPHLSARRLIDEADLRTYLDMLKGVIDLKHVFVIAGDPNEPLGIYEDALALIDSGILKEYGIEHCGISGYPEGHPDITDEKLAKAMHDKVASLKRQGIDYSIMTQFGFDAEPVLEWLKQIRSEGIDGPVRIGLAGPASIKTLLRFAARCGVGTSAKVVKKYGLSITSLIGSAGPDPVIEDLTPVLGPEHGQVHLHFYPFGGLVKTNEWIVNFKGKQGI

In the case of `Cc1cc2nc3c(=O)[nH]c(=O)nc-3n(C[C@H](O)[C@H](O)[C@H](O)COP(=O)(O)OP(=O)(O)OC[C@H]3O[C@@H](n4cnc5c(N)ncnc54)[C@H](O)[C@@H]3O)c2cc1C` [FAD], the “X-ray crystal structure of CH3-THF complex, 1.85 Å” value is reported as “FAD and the experimentally observed part of the CH3-THF molecule are shown by stick models”.
